Assay: hydrogen sulfide-trapping ability by methylene blue spectrophotometry
Settings: room temperature
Procedure: The presence or absence of a hydrogen sulfide-trapping ability (hydrogen sulfide elimination effect) of pantethine trisulfide (PANSSS) was evaluated through methylene blue spectrophotometry.
Sodium sulfide nonahydrate (Na2S·9H2O) was dissolved in purified water to prepare a 50 μmol/L sodium sulfide nonahydrate solution, which was used as a H2S standard solution.
p-Aminodimethylaniline was dissolved in 10 N sulfuric acid to prepare 1 mmol/L DPDA solution.
Iron (III) chloride hexahydrate was dissolved in 1% sulfuric acid to prepare a 3 mmol/L FeCl3·6H2O solution.
A 0.5 mmol/L pantethine trisulfide solution was prepared by dissolving pantethine trisulfide in 25 mmol/L phosphate buffer (PBS, pH 7).
10 mL of the H2S standard solution (0.5 μmol, standard) was added to a stoppered test tube and stirred. 1 mL (0.5 μmol, 1 eq.) of PBS (blank) or the pantethine trisulfide solution was added to this solution and stirred for a predetermined time (0, 5, 15 or 30 minutes). After stirring, 1 mL (1 μmol, 2 eq.) of the DPDA solution and 1 mL (3 μmol, 6 eq.) of the FeCl3·6H2O solution were added thereto and further stirred, and the absorbance (wavelength: 668 nm) of the solution was measured after the absorbance of the solution stopped changing (that is, after color development due to methylene blue production was completed). This test was conducted under the conditions of room temperature.

SMILES: CC(C)(CO)[C@@H](O)C(=O)NCCC(=O)NCCSSSCCNC(=O)CCNC(=O)[C@H](O)C(C)(C)CO [pantethine trisulfide]
- absorbance (wavelength: 668 nm) compared to the blank (0.5 μmol H2S, 1 eq. pantethine trisulfide in PBS pH 7, stirring 0, 5, 15 or 30 minutes): the longer the contact time (reaction time) between H2S and pantethine trisulfide, the lower the absorbance compared to the blank
- hydrogen sulfide-trapping ability (hydrogen sulfide elimination effect) (methylene blue spectrophotometry, 1 eq. to H2S): had a hydrogen sulfide-trapping ability

Reference: patent publication US12534432B2, “Trisulfide compound” (Kyowa Pharma Chemical Co., Ltd., priority 2020, dated 2026)
